The values that follow are results of earlier work, collected in publication PMC8354143, “Cy3-RgIA-5727 Labels and Inhibits α9-Containing nAChRs of Cochlear Hair Cells” (Frontiers in Cellular Neuroscience, 2021).

Data set [1] deals with voltage-gated calcium channels in the efferent terminals.

On to α-Conotoxin-RgIA, for which the “antagonism of α9-containing nAChRs” value in the data set with α9-containing nAChRs was “specific and potent antagonist of α9-containing nAChRs”.

ω-conotoxin GVIA: the “time course of block of voltage-gated calcium channels” value in data set [1] was 15 to 20 min.
